Here are results for two substances from US8440637B2, “Combination treatment for the treatment of hepatitis C virus infection” (priority 2007, dated 2013).

l = locked nucleic acid (LNA); d = 2'-deoxy (DNA)

In data set [1] the test system is miR-122. The data set is described as follows: Total plasma cholesterol in hypercholesterolemic and normal mice, long-term treatment. The note with it: 5 mg/kg i.p. twice weekly. Format: in vivo, mouse. The procedure:
C57BL/6J female mice were fed on high fat diet for 13 weeks before the initiation of the SEQ ID NO: 63 treatment. […] Both hypercholesterolemic and normal mice were treated i.p. twice weekly with 5 mg/kg SEQ ID NO: 63 and the corresponding mismatch control for a study period of 5½ weeks. Blood samples were collected weekly and total plasma cholesterol was measured during the entire course of the study. Upon sacrificing the mice, liver and blood samples were prepared for total RNA extraction, miRNA and mRNA quantification, assessment of the serum transaminase levels, and liver histology.
C57BL/6J female mice (Taconic M&B Laboratory Animals, Ejby, Denmark) were used. All substances were formulated in physiological saline (0.9% NaCl) to final concentration allowing the mice to receive an intraperitoneal injection volume of 10 ml/kg.
In the diet induced obesity study, the mice received a high fat (60EN %) diet (D12492, Research Diets) for 13 weeks to increase their blood cholesterol level before the dosing started. The dose regimen was stretched out to 5½ weeks of 5 mg/kg LNA-antimiR™ twice weekly. Blood plasma was collected once a week during the entire dosing period. After completion of the experiment the mice were sacrificed and RNA extracted from the livers for further analysis. Serum was also collected for analysis of liver enzymes.
Immediately before sacrifice retro-orbital sinus blood was collected in EDTA-coated tubes followed by isolation of the plasma fraction. Total plasma cholesterol was analysed using ABX Pentra Cholesterol CP (Horiba Group, Horiba ABX Diagnostics) according to the manufacturer's instructions.

The format of data set [2] is in vitro ADME. Particulars: 96 h. How it is done: LNA oligonucleotide stability was tested in plasma from human or rats (it could also be mouse, monkey or dog plasma). In 45 μl plasma, 5 μl LNA oligonucleotide is added (at a final concentration of 20 μM). The LNA oligonucleotides are incubated in plasma for times ranging from 0 to 96 hours at 37° C.
At the indicated time the sample were snap frozen in liquid nitrogen. 2 μL (equals […]) LNA oligonucleotide in plasma was diluted by adding 15 μL of water and 3 μL 6× loading dye (Invitrogen). As marker a 10 bp ladder (Invitrogen, USA 10821-015) is used. To 1 μl ladder, 1 μl 6× loading and 4 μl water is added. The samples are mixed, heated to 65° C. for 10 min and loaded to a pre-run gel (16% acrylamide, 7 M UREA, 1×TBE, pre-run at 50 Watt for 1 h) and run at 50-60 Watt for […]. Subsequently, the gel is stained with 1× SyBR gold (molecular probes) in 1×TBE for 15 min. The bands were visualised using a phosphoimager from BioRad.
Stability of SEQ ID NO: 61 and SEQ ID NO: 61/miR-122a duplex were tested in mouse plasma at 37° C. over 96 hours. Shown in FIG. 12 is a SYBR-Gold stained PAGE.

With “5′-CcAttGTcaCaCtCC-3′ (antisense CCATTGTCACACTCC; sugars from the 5' end ldlddllddldldll, backbone and methylation of C not given here) [SEQ ID NO: 63]”, in data set [1] (hypercholesterolemic mice, after 10 days, sustained during the study), the “reduction of total plasma cholesterol compared to saline control” value was “about 30%”. Also, the “effect on total plasma cholesterol (in words)” value in data set [1] (normal diet mice) is on record as “not as pronounced”.
For the substance “5′-ccAttGtcAcaCtcCa-3′ (antisense CCATTGTCACACTCCA; sugars from the 5' end ddlddlddlddlddld, backbone and methylation of C not given here) [SEQ ID NO: 61]”, the “stability in mouse plasma (in words)” value in data set [2] was “completely stable over 96 hours”.
